Data: patent publication US20230256058A1 (MAPI PHARMA LTD., priority 2020, published 2023)

Key:
[1] = Plasma concentrations of liraglutide formulations in db/db mice; assay type: in vivo; settings: 200 μg/kg SC daily
Method: Treatment Groups: 1. Naïve control normal mice (n=6) • 2. Placebo (vehicle) control db/db mice (n=8) • 3.
• Ad lib fed blood glucose levels were recorded every 3rd day throughout the study period i.e. on Day-1, Day-3, Day-6, Day-9, Day-12, Day-15, Day-18, Day-21, Day-24, and Day-27. […] (before treatment) and 3 hr. post treatment. • On Day-1 and Day-28, blood samples were collected for the measurement of HbA1C levels. • Body weight and feed intake were recorded every day throughout treatment period.

[2] = cited from earlier work
[3] = in vivo; cited from earlier work

Molecule | Plasma levels (in words) ([1]; post 3 hr. of injection) | Plasma levels (in words) ([1]; post 24 hr. of treatment) | Steady state therapeutic plasma concentration ([2]; VICTOZA Prescribing Information) | Human range for clinically effective concentrations ([2]; human, Ingwersen S. H. et al. J. Clin. Pharmacol. 2012) [nmol/L] | Pharmacokinetic half-life [3] [min]
CCCCCCCCCCCCCCCC(=O)N[C@@H](CCC(=O)NCCCC[C@H](NC(=O)[C@H](C)NC(=O)[C@H](C)NC(=O)[C@H](CCC(N)=O)NC(=O)CNC(=O)[C@H](CCC(=O)O)NC(=O)[C@H](CC(C)C)NC(=O)[C@H](Cc1ccc(O)cc1)NC(=O)[C@H](CO)NC(=O)[C@H](CO)NC(=O)[C@@H](NC(=O)[C@H](CC(=O)O)NC(=O)[C@H](CO)NC(=O)[C@@H](NC(=O)[C@H](Cc1ccccc1)NC(=O)[C@@H](NC(=O)CNC(=O)[C@H](CCC(=O)O)NC(=O)[C@H](C)NC(=O)[C@@H](N)Cc1cnc[nH]1)[C@@H](C)O)[C@@H](C)O)C(C)C)C(=O)N[C@@H](CCC(=O)O)C(=O)N[C@@H](Cc1ccccc1)C(=O)N[C@H](C(=O)N[C@@H](C)C(=O)N[C@@H](Cc1c[nH]c2ccccc12)C(=O)N[C@@H](CC(C)C)C(=O)N[C@H](C(=O)N[C@@H](CCCNC(=N)N)C(=O)NCC(=O)N[C@@H](CCCNC(=N)N)C(=O)NCC(=O)O)C(C)C)[C@@H](C)CC)C(=O)O [L-API, liraglutide] | increase in plasma levels | detectable plasma levels | about 128 ng/mL | 5 to 45 | –
GLP-1 | – | – | – | – | 2 to 5
